Test system: B16/F1 murine melanoma
Assay type: in vivo, C57BL mice
Protocol: To the nape of the neck of 12 female C57BL mice, each weighing 18˜23 g, B16/F1 murine melanoma cells were injected at a density of 10^6 cells/mL. Two weeks later, the tumor was developed to a size of 0.5˜1 g. The ^177Lu-DOTA-Gly-Cyclic(Dap-Gln-His-dPhe-Arg-Trp-Asp)-Lys-Pro-Val-CONH2 prepared in Example 13 was injected to the mice at a dose of 5 μCi (1.6 μg in 100 μl of saline). 2, 4 and 24 hours later, the mice were sacrificed before organ excision.
For comparison for target selectivity, the mice that were injected with 2 μg of an unlabeled peptide 2 hours after the first injection and then with the radiolabeled peptide were used as a control.
The excised organs were analyzed for radioactivity using a gamma counter (1470 WIZARD Automatic Gamma Counter, PerkinElmer) and the results are plotted in FIG. 7.

“^177Lu-labeled DOTA-Gly-cyclic(Dap-Glu-His-dPhe-Arg-Trp-Asp)-Lys-Pro-Val-CONH2 [Example 13]” was tested, and the receptor selectivity (concluded from tumor uptake with and without unlabeled peptide) was “high receptor selectivity” and the “tumor uptake in control injected with 2 μg of unlabeled peptide, compared with experimental groups” value (mouse, in vivo) was “lower tumor uptake”.
